{
  "source": "patent US4258185A",
  "about": "“Pyridazinone compounds” (Yoshitomi Pharmaceutical Industries, Ltd., priority 1980, dated 1981)",
  "key": {"platelet aggregation [1]": {"system": "platelet aggregation", "test": "Inhibitory activity on platelet aggregation in rats (ADP-induced, after oral treatment)", "format": "in vivo", "details": "Rattus norvegicus, 2 hours after oral treatment, 1.5×10^-5 M adenosine diphosphate, read-out: Percent inhibition of platelet aggregation, Rat", "protocol": "(§1) I. Inhibitory activity on platelet aggregation in rats and rabbits\n(§2) The citrated blood was obtained 2 hours after the oral treatment with test compounds. The platelet aggregation of platelet rich-plasma was induced by addition of 1.5×10^-5 M adenosine diphosphate (final concentration) and was measured with a Born type six channel aggregometer (G.V.R. Born, J. Physiol. 162, 67 (1962)). […] II. Antihypertensive activity in spontaneously hypertensive rats"}, "platelet aggregation [2]": {"system": "platelet aggregation", "test": "Inhibitory activity on platelet aggregation in rabbits (ADP-induced, after oral treatment)", "format": "in vivo", "details": "Oryctolagus cuniculus, 2 hours after oral treatment, 1.5×10^-5 M adenosine diphosphate, ± SE, read-out: Percent inhibition of platelet aggregation, Rabbit", "protocol": "as §1, §2"}, "[3]": {"system": "spontaneously hypertensive rats", "test": "Antihypertensive activity in spontaneously hypertensive rats (tail blood pressure)", "format": "in vivo, rat", "details": "po, decrease of maximum blood pressure at 5 hours after treatment", "protocol": "as §2\nA group of 5 spontaneously hypertensive rats (300-350 g) was used. Tail blood pressure was determined by a rat tail manometer (NARCO, PE-300) without anesthesia immediately before and 5 hours after the oral treatment with test compounds. The rat was warmed at 40° C. for 10 minutes. The apparatus detects blood flow pulses in the tail by a pulse sensor. The arterial blood flow was interrupted by applying pressure to the tail through a pneumatic cuff. The blood flow reappeared when the cuff pressure was decreased. The value was approximately equal to the maximum blood pressure."}},
  "note": "Counter-ions that a name gives are not always drawn.",
  "data": [
    {"compound": "CC(=O)OCC1CC(=O)NN=C1c1ccc2c(c1)CCC(=O)N2C", "note": "(stereo not drawn) [Compound B, 6-(5-Acetoxymethyl-3-oxo-2,3,4,5-tetrahydropyridazin-6-yl)-1-methyl-1,2,3,4-tetrahydroquinolin-2-one]", "values": [
      {"measurement": "inhibition at 3 mg/kg", "setting": "platelet aggregation [1]", "result": 51, "unit": "%"},
      {"measurement": "inhibition at 3 mg/kg", "setting": "platelet aggregation [2]", "result": "85 ± 6", "unit": "%"},
      {"measurement": "Decrease of tail blood pressure in SHR", "setting": "[3]; 3 mg/kg", "result": 31, "unit": "mmHg"},
      {"measurement": "Decrease of tail blood pressure in SHR", "setting": "[3]; 30 mg/kg", "result": 62, "unit": "mmHg"}
    ]},
    {"compound": "CC1CC(=O)NN=C1c1ccc2c(c1)C(C)(C)CC(=O)N2C", "note": "(stereo not drawn) [Compound C, 6-(5-Methyl-3-oxo-2,3,4,5-tetrahydropyridazin-6-yl)-1,4,4-trimethyl-1,2,3,4-tetrahydroquinolin-2-one]", "values": [
      {"measurement": "inhibition at 3 mg/kg", "setting": "platelet aggregation [1]", "result": 59, "unit": "%"},
      {"measurement": "inhibition at 3 mg/kg", "setting": "platelet aggregation [2]", "result": "93 ± 1", "unit": "%"},
      {"measurement": "Decrease of tail blood pressure in SHR", "setting": "[3]; 3 mg/kg", "result": 48, "unit": "mmHg"},
      {"measurement": "Decrease of tail blood pressure in SHR", "setting": "[3]; 30 mg/kg", "result": 63, "unit": "mmHg"}
    ]},
    {"compound": "CC1CC(=O)NN=C1c1ccc2c(c1)C(C)CC(=O)N2C", "note": "(stereo not drawn) [Compound D, 6-(5-Methyl-3-oxo-2,3,4,5-tetrahydropyridazin-6-yl)-1,4-dimethyl-1,2,3,4-tetrahydroquinolin-2-one]", "values": [
      {"measurement": "inhibition at 0.1 mg/kg", "setting": "platelet aggregation [1]; 0.1 mg/kg", "result": 38, "unit": "%"},
      {"measurement": "inhibition at 0.3 mg/kg", "setting": "platelet aggregation [2]; 0.3 mg/kg", "result": "78 ± 6", "unit": "%"},
      {"measurement": "Decrease of tail blood pressure in SHR", "setting": "[3]; 0.3 mg/kg", "result": 16, "unit": "mmHg"},
      {"measurement": "Decrease of tail blood pressure in SHR", "setting": "[3]; 3 mg/kg", "result": 71, "unit": "mmHg"}
    ]},
    {"compound": "CN1C(=O)CC(C)(C)c2cc(C3=NNC(=O)CC3CO)ccc21", "note": "(stereo not drawn) [Compound E, 6-(5-Hydroxymethyl-3-oxo-2,3,4,5-tetrahydropyridazin-6-yl)-1,4,4-trimethyl-1,2,3,4-tetrahydroquinolin-2-one]", "values": [
      {"measurement": "inhibition at 10 mg/kg", "setting": "platelet aggregation [1]; 10 mg/kg", "result": 43, "unit": "%"},
      {"measurement": "inhibition at 30 mg/kg", "setting": "platelet aggregation [2]; 30 mg/kg", "result": "48 ± 16", "unit": "%"}
    ]},
    {"compound": "CN1C(=O)CCc2cc(C3=NNC(=O)CC3CO)ccc21", "note": "(stereo not drawn) [Compound F, 6-(5-Hydroxymethyl-3-oxo-2,3,4,5-tetrahydropyridazin-6-yl)-1-methyl-1,2,3,4-tetrahydroquinolin-2-one]", "values": [
      {"measurement": "inhibition at 3 mg/kg", "setting": "platelet aggregation [1]", "result": 62, "unit": "%"},
      {"measurement": "Decrease of tail blood pressure in SHR", "setting": "[3]; 30 mg/kg", "result": 92, "unit": "mmHg"}
    ]},
    {"compound": "CCC1CC(=O)NN=C1c1ccc2c(c1)CCC(=O)N2CC", "note": "(stereo not drawn) [Compound G, 6-(5-Ethyl-3-oxo-2,3,4,5-tetrahydropyridazin-6-yl)-1-ethyl-1,2,3,4-tetrahydroquinolin-2-one]", "values": [
      {"measurement": "inhibition at 3 mg/kg", "setting": "platelet aggregation [1]", "result": 34, "unit": "%"}
    ]},
    {"compound": "CCN1C(=O)CCc2cc(C3=NNC(=O)CC3CO)ccc21", "note": "(stereo not drawn) [Compound H, 6-(5-Hydroxymethyl-3-oxo-2,3,4,5-tetrahydropyridazin-6-yl)-1-ethyl-1,2,3,4-tetrahydroquinolin-2-one]", "values": [
      {"measurement": "inhibition at 3 mg/kg", "setting": "platelet aggregation [1]", "result": 46, "unit": "%"}
    ]},
    {"compound": "CCN1C(=O)CCc2cc(C3=NNC(=O)CC3COC(C)=O)ccc21", "note": "(stereo not drawn) [Compound I, 6-(5-Acetoxymethyl-3-oxo-2,3,4,5-tetrahydropyridazin-6-yl)-1-ethyl-1,2,3,4-tetrahydroquinolin-2-one]", "values": [
      {"measurement": "inhibition at 3 mg/kg", "setting": "platelet aggregation [1]", "result": 46, "unit": "%"},
      {"measurement": "Decrease of tail blood pressure in SHR", "setting": "[3]; 30 mg/kg", "result": 47, "unit": "mmHg"}
    ]},
    {"compound": "CCN1C(=O)CCc2cc(C3=NNC(=O)CC3C)ccc21", "note": "(stereo not drawn) [Compound J, 6-(5-Methyl-3-oxo-2,3,4,5-tetrahydropyridazin-6-yl)-1-ethyl-1,2,3,4-tetrahydroquinolin-2-one]", "values": [
      {"measurement": "inhibition at 3 mg/kg", "setting": "platelet aggregation [1]", "result": 35, "unit": "%"}
    ]},
    {"compound": "CC1CC(=O)N(CCN2CCOCC2)N=C1c1ccc2c(c1)CCC(=O)N2C", "note": "(stereo not drawn) [Compound K, 6-[5-Methyl-2-(2-morpholinoethyl)-3-oxo-2,3,4,5-tetrahydropyridazin-6-yl]-1-methyl-1,2,3,4-tetrahydroquinolin-2-one hydrochloride hemihydrate]", "values": [
      {"measurement": "inhibition at 3 mg/kg", "setting": "platelet aggregation [1]", "result": 51, "unit": "%"},
      {"measurement": "inhibition at 3 mg/kg", "setting": "platelet aggregation [2]", "result": "75 ± 8", "unit": "%"},
      {"measurement": "Decrease of tail blood pressure in SHR", "setting": "[3]; 3 mg/kg", "result": 45, "unit": "mmHg"}
    ]}
  ]
}
